Experimental data published in patent publication US4520024A, “Method of selectively blocking peripheral vascular serotonergic receptors” (Eli Lilly and Company, priority 1983, dated 1985).

What was measured:
[1] = test system: conscious spontaneously hypertensive rats (SHR); assay: In vivo studies, conscious SHR, mean arterial blood pressure; parameters: species or system rat; details: intraperitoneal, 10 mg./kg. dose level
Text: Twenty-four week old SHR (325-425 g.) rats were anesthetized with halothane. They were then implanted with femoral arterial and venous catheters. The tips of the arterial and venous catheters were positioned in the abdominal aorta below the renal arteries and lower abdominal vena cava, respectively. The catheters were routed subcutaneously to an exit point at the base of the skull and then through a small leather harness fastened around the forequarters of each animal. The animals were allowed a 3-4 day recovery period after surgery. On the day before a given experiment, the rats to be used in that experiment were conditioned to the experimental surroundings for about 6 hours. In carrying out the determination, the harness on the back of each animal was connected to a spring-tether through which arterial and venous extension tubing were routed. The opposite end of the tubing was connected to a water tight swivel. This system permitted direct recording of blood pressure in conscious, free-moving animals. Mean arterial blood pressure was measured via a Statham strain gauge transducer and recorded on a multichannel oscillograph. The rats were equilibrated for at least 30 minutes prior to the initiation of the experimental protocol. During this equilibration period, the animals preened themselves and the blood pressure was quite labile. After this period, the animals appeared to sleep and pressure was stable. Following a control blood pressure measurement, the rats were dosed with ketanserin, benzoctamine, 1-(1-naphthyl)piperazine or the experimental vehicle via the intraperitoneal route. Blood pressure was monitored at various time intervals after dosing.

alpha1 receptor = assay: In vivo studies, pithed SHR, pressor response to methoxamine; parameters: species or system rat; details: i.p., rank order among three drugs
Protocol: SHR were anesthesized with halothane, femoral arterial and venous catheters implanted as before and the trachea cannulated. Each rat was pithed by passing a steel rod through the right orbit and down the entire length of the spinal column. The steel rod remained in place for the duration of the experiment. Immediately after pithing, the rats were ventilated with room air via a rodent respirator which eliminated any anesthetic effects. […] The response was recorded and the blood pressure allowed to recover to control levels. […] The test drugs were prepared fresh daily and administered by the intraperitoneal route. Benzoctamine and 1-(1-naphthyl)piperazine were administered at a 10 mg./kg. dosage and ketanserin at a 1 mg./kg. dosage.

5HT2 receptors [2] = target: T1, 5HT2 receptors (Rattus norvegicus, UniProt P14842); assay: In vivo studies, pithed SHR, pressor response to serotonin; parameters: from tissue; host or cells: whole animal: pithed SHR, vascular tissue in vivo; details: i.p., rank order among three drugs
T1 sequence (P14842 whole entry): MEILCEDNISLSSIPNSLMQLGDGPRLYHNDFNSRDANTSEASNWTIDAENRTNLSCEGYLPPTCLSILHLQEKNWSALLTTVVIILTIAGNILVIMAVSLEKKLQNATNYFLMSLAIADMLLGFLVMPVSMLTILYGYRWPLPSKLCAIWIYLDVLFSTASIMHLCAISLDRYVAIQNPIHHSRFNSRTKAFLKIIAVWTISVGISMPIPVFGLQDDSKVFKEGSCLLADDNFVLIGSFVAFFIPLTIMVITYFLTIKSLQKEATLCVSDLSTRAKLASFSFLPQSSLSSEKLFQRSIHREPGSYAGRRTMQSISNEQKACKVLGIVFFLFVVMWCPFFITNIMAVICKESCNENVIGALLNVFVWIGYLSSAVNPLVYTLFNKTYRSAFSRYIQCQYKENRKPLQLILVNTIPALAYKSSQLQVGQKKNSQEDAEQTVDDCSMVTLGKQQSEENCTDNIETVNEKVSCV
Protocol: SHR were anesthesized with halothane, femoral arterial and venous catheters implanted as before and the trachea cannulated. Each rat was pithed by passing a steel rod through the right orbit and down the entire length of the spinal column. The steel rod remained in place for the duration of the experiment. Immediately after pithing, the rats were ventilated with room air via a rodent respirator which eliminated any anesthetic effects. An equilibration period of 15 minutes was observed prior to control measurements and administration of drugs or vehicle i.p. Increasing doses of serotonin or methoxamine were injected i.v. 15 minutes after the equilibration period. The response was recorded and the blood pressure allowed to recover to control levels. […] The test drugs were prepared fresh daily and administered by the intraperitoneal route. Benzoctamine and 1-(1-naphthyl)piperazine were administered at a 10 mg./kg. dosage and ketanserin at a 1 mg./kg. dosage.

[3] = test system: alpha-adrenergic receptors; assay: Apparent dissociation constant, antagonism of norepinephrine-induced contraction in rat aorta; format: cell-based
Text: (§1) Male Wistar rats (150-300 gram weight) were killed and their external jugular veins and thoracic aortas dissected free of connective tissue, cannulated in situ and placed in a modified Krebs' bicarbonate buffer in a suitable tissue bath. Two L-shaped 30-gauge stainless-steel hypodermic needles were inserted in each cannula and the dissected vessels gently pushed onto the needles. One needle was attached with thread to a stationary glass rod and the other to the transducer. [The procedure employed was that described by Hooker, Calkins and Fleisch, Blood Vessels, 14, 1, (1977) for use with circular smooth muscle preparations.]
(§2) The modified Krebs' bicarbonate buffer had the following makeup: (concentrations in millimoles): sodium chloride, 118.2; potassium chloride, 4.6; calcium chloride dihydrate, 1.6; potassium dihydrogenphosphate, 1.2; magnesium sulfate, 1.2; dextrose, 10.0; sodium bicarbonate, 24.8; and water q.s. to 1000 g. […] Isometric contractions were recorded as changes in grams of force on a Beckman Dynograph with Statham UC-3 transducers and microscale accessory attachment. […] Contraction to serotonin was evaluated in the jugular vein since this tissue produces marked responses to serotonin in the absence of alpha receptors--see Cohen and Wiley, J. Pharm. […] Alpha receptor antagonist activity was evaluated in the aorta. […]

5HT2 receptors [4] = target: T1, 5HT2 receptors; assay: Apparent dissociation constant, antagonism of serotonin-induced contraction in rat jugular vein; format: cell-based; parameters: from tissue; host or cells: whole animal: pithed SHR, vascular tissue in vivo; details: serotonin as agonist, antagonist incubated one hour, read-out: -log KB for 5HT2 receptors (converted)
Text: as §1, §2

| SMILES | blood pressure lowering [1] | inhibition in the pressor response to methoxamine (alpha1 receptor; 10 mg./kg.) | inhibition of the pressor response to serotonin (5HT2 receptors [2]; 10 mg./kg.) | -log KB for alpha-adrenergic receptors ([3]; rat thoracic aorta, norepinephrine as agonist, antagonist incubated one hour, 60 min) | lower affinity for alpha-adrenergic receptors than for 5HT2 receptors ([3]; ratio of affinities, 5HT2 versus alpha-adrenergic) | Kb (5HT2 receptors [4]) | inhibition in the pressor response to methoxamine (alpha1 receptor; 1 mg./kg.) | inhibition of the pressor response to serotonin (5HT2 receptors [2]; 1 mg./kg.) |
| --- | --- | --- | --- | --- | --- | --- | --- | --- |
| CNCC12CCC(c3ccccc31)c1ccccc12 [benzoctamine] | lowered blood pressure as did ketanserin but to a lesser degree | second | then benzoctamine |  |  |  |  |  |
| c1ccc2c(N3CCNCC3)cccc2c1 [1-(1-naphthyl)piperazine] | ineffective as a blood pressure lowering agent | the least |  | 5.38 | approximately 2000 fold | 1.78 nM |  |  |
| O=C(c1ccc(F)cc1)C1CCN(CCn2c(=O)[nH]c3ccccc3c2=O)CC1 [ketanserin] | produced the greatest fall in blood pressure |  |  |  |  |  | greatest effect | greatest |
